Assay results as given in patent US7045343B2, “Sterilization indicator test packs” (3M Innovative Properties Company, priority 1998, dated 2006).

Legend:
[1] = system: enzyme associated with Bacillus stearothermophilus spores; assay: Rapid enzyme fluorescence readout of dual rapid readout indicators after prevacuum steam sterilization; type: biochemical; conditions: 4-pulse prevacuum steam 121° C.
Procedure: (§1) The indicators prepared for the Examples were dual rapid readout indicators that provided both a rapid, enzyme-based efficacy test and a confirmatory spore outgrowth test. Spores coated on the carrier strip 16 served as the source of active enzyme whose activity was measured by the rapid enzyme test. These same spores were then incubated in the spore outgrowth portion of the test.
(§2) Bacillus stearothermophilus, commercially available as ATCC 7953 from American Type Culture Collection, Rockville, Md., was grown overnight (16 hours) at 58° C. in tryptic soy broth. This culture was used to inoculate the surface of agar plates consisting of 8 g/l nutrient broth, 4 g/l yeast extract, 0.1 g/l manganese chloride and 20 g/l agar at pH 7.2. Plates were incubated at 58° C. for 72 hours. Spores were scraped from the plates and suspended in sterile distilled water. The spores were separated from the vegetative debris by centrifuging the suspension at 7000 rpm and 4° C. for 20 minutes. The supernatant was poured off and the spores were resuspended in sterile distilled water. The cleaning procedure was repeated several times. After the final wash, the spores were suspended in sterile distilled water, at a concentration of approximately 1×10^8 spores per milliliter.
(§3) The spores were then treated with the chemicals identified in Tables 1–5. All chemicals tested were obtained from commercial sources. The spores were centrifuged at 6000 rpm for 10 minutes. The supernatant and coating chemical mixtures were heated at 60–80° C. for several minutes and vortexed to get the material into solution. The spores were then mixed into the sterilant-resistant chemical solution. The sterilant-resistant chemical solution was applied to 5×25 mm, 591 A paper strips (Schleicher & Schuell, Inc., Keene, N.H.) by pipetting 10–15 microliters to each strip for a final population of about 1×10^6 spores per strip. The strips were dried 16 hours at 37° C.
(§4) The treated spore strips were placed on the bottom of the outer container 12 of the indicator 10 and a barrier was inserted between the spore strip 16 and the inner container 18, which contained enzyme substrate. A […] ( 11/16 inch) disc of polypropylene blown microfiber material, with a weight of 200 g/m^2, commercially available as “THINSULATE™ 200-B brand Thermal Insulation” from 3M Company, St. Paul, Minn., was used as the barrier. The inner container 18 contained 0.67 ml nutrient medium, consisting of 17 g of a bacteriological peptone and a 0.17 g/l of L-alanine, as well as 0.1 g 4-methylumbelliferyl-alpha-D-glucoside, commercially available from Sigma Chemical Company, St. Louis, Mo., dissolved in 200 microliters of N,N-dimethylformamide, and 0.03 g bromocresol purple pH indicator dye, per liter of water. The pH of the enzyme substrate and nutrient medium solution was adjusted to 7.6 with 0.1N sodium hydroxide.
(§5) Sterilization indicators were made as described above with each of the chemicals and concentrations described in Table 1. Control indicators were made using untreated spores. The indicators were placed in metal instrument trays and exposed at 121° C. in a Getinge Steam Sterilizer (Getinge International, Inc., 1100 Towbin Ave., Lakewood, N.J.) using a 4-pulse prevacuum cycle at 121° C. with a vacuum level of 0.075–0.085 bar and a steam pulse to 1.00 bar for each pulse. Indicators were exposed in the sterilizer for between 7 and 13 minutes. This cycle is depicted in the time-pressure diagram in FIG. 5. After exposure the inner containers containing the enzyme substrate and nutrient medium were crushed and the indicators were incubated at 60° C. The indicators were examined for fluorescence using a 3M™ ATTEST™ Model 190 Rapid Autoreader, commercially available from 3M Company, St. Paul, Minn. Additionally, spore growth, as indicated by a color change from purple to yellow, was determined visually after 168 hours of incubation at 60° C. […]

[2] = system: Bacillus stearothermophilus spores; assay: Spore outgrowth (color change) of indicators after prevacuum steam sterilization; type: cell-based; conditions: 4-pulse prevacuum steam 121° C.
Procedure: as §1, §2, §3, §4, §5

[3] = Example 2, 5 mg/ml coating, 7–13 min
[4] = Example 2, 10 mg/ml coating, 7–13 min
[5] = Example 2, 20 mg/ml coating, 7–13 min
[6] = Example 2, 40 mg/ml coating, 7–13 min
[7] = Example 2, 80 mg/ml coating, 7–13 min
[8] = Example 4, 50 mg/ml coating, 7–18 min
[9] = Example 4, 100 mg/ml coating, 7–18 min

OCC(O)COCC(O)COCC(O)COCC(O)COCC(O)COCC(O)CO (centres unmarked) [Hexaglycerol]
accuracy of sterilization indicators compared to indicators made with untreated spores [1]: did not improve the accuracy | FLUORESCENCE - PERCENT POSITIVE 1 HR [1, 3]: 0% | FLUORESCENCE - PERCENT POSITIVE 2 HR [1, 3]: 0% | FLUORESCENCE - PERCENT POSITIVE 3 HR [1, 3]: 0% | FLUORESCENCE - PERCENT POSITIVE 4 HR [1, 3]: 9.1% | FLUORESCENCE - PERCENT POSITIVE 5 HR [1, 3]: 45.5% | FLUORESCENCE - PERCENT POSITIVE 6 HR [1, 3]: 63.6% | FLUORESCENCE - PERCENT POSITIVE 1 HR [1, 4]: 0% | FLUORESCENCE - PERCENT POSITIVE 2 HR [1, 4]: 0% | FLUORESCENCE - PERCENT POSITIVE 3 HR [1, 4]: 5.0% | FLUORESCENCE - PERCENT POSITIVE 4 HR [1, 4]: 15.0% | FLUORESCENCE - PERCENT POSITIVE 5 HR [1, 4]: 35.0% | FLUORESCENCE - PERCENT POSITIVE 6 HR [1, 4]: 50.0% | FLUORESCENCE - PERCENT POSITIVE 1 HR [1, 5]: 0% | FLUORESCENCE - PERCENT POSITIVE 2 HR [1, 5]: 0% | FLUORESCENCE - PERCENT POSITIVE 3 HR [1, 5]: 11.1% | FLUORESCENCE - PERCENT POSITIVE 4 HR [1, 5]: 38.9% | FLUORESCENCE - PERCENT POSITIVE 5 HR [1, 5]: 50.0% | FLUORESCENCE - PERCENT POSITIVE 6 HR [1, 5]: 61.1% | FLUORESCENCE - PERCENT POSITIVE 1 HR [1, 6]: 0% | FLUORESCENCE - PERCENT POSITIVE 2 HR [1, 6]: 0% | FLUORESCENCE - PERCENT POSITIVE 3 HR [1, 6]: 26.9% | FLUORESCENCE - PERCENT POSITIVE 4 HR [1, 6]: 46.2% | FLUORESCENCE - PERCENT POSITIVE 5 HR [1, 6]: 53.8% | FLUORESCENCE - PERCENT POSITIVE 6 HR [1, 6]: 61.5% | FLUORESCENCE - PERCENT POSITIVE 1 HR [1, 7]: 0% | FLUORESCENCE - PERCENT POSITIVE 2 HR [1, 7]: 0% | FLUORESCENCE - PERCENT POSITIVE 3 HR [1, 7]: 37.5% | FLUORESCENCE - PERCENT POSITIVE 4 HR [1, 7]: 58.3% | FLUORESCENCE - PERCENT POSITIVE 5 HR [1, 7]: 70.8% | FLUORESCENCE - PERCENT POSITIVE 6 HR [1, 7]: 70.8% | NO. GROWTH POSITIVE 168 HR [2, 3]: 11 | NO. GROWTH POSITIVE 168 HR [2, 4]: 20 | NO. GROWTH POSITIVE 168 HR [2, 5]: 18 | NO. GROWTH POSITIVE 168 HR [2, 6]: 26 | NO. GROWTH POSITIVE 168 HR [2, 7]: 24

Hexaglyceryl Monolaurate
accuracy of sterilization indicators compared to indicators made with untreated spores [1]: improved | FLUORESCENCE - PERCENT POSITIVE 1 HR [1, 8]: 0% | FLUORESCENCE - PERCENT POSITIVE 2 HR [1, 8]: 28.6% | FLUORESCENCE - PERCENT POSITIVE 3 HR [1, 8]: 57.1% | FLUORESCENCE - PERCENT POSITIVE 4 HR [1, 8]: 71.4% | FLUORESCENCE - PERCENT POSITIVE 1 HR [1, 9]: 90.0% | FLUORESCENCE - PERCENT POSITIVE 2 HR [1, 9]: 100.0% | FLUORESCENCE - PERCENT POSITIVE 3 HR [1, 9]: 100.0% | FLUORESCENCE - PERCENT POSITIVE 4 HR [1, 9]: 100.0% | NO. GROWTH POSITIVE 168 HR [2, 8]: 7 | NO. GROWTH POSITIVE 168 HR [2, 9]: 20
